Measurements reported in patent US4350685A, “Antiallergic imidodisulfamides” (SmithKline Corporation, priority 1981, dated 1982).

Test system: SRS-A induced contraction of guinea pig ileum
Test: inhibition of SRS-A induced contraction of guinea pig ileum (SRS-A antagonist activity)
Format: cell-based
Conditions: Cavia porcellus, 0.25 h, partially purified SRS-A from guinea pig lung, 40 μg/ml, 15 minutes incubation, read-out: percent antagonism of SRS-A; for inhibition at 5 µM: 5×10^-6 M
Procedure: The SRS-A antagonist activity of the compounds of this invention is measured by the ability of the active medicament to inhibit SRS-A induced contraction of guinea pig ileum. In this test system, sections of ileum are resected from guinea pigs and placed in 5 ml. tissue baths containing a modified Tyrode's solution. One end of the tissue is fixed to a glass tissue holder, the other is connected to a force-displacement transducer and the tissue is placed under a tension of 500 mg. Isometric tissue contractions are recorded on a six channel polygraph. Baths are constantly aerated with 95% O2 -5% CO2. After a 20 minute stabilization period a concentration of the appropriate agonist which provides a contraction height of 60-80% of the maximum obtainable to that agonist (as determined from full sequential concentration-response curves in separate experiments) is added to the tissue bath and the response recorded. The procedure is repeated until reproducible responses are obtained. For most agonists, two applications in rapid succession, followed 15 minutes later by a third, is sufficient to establish reproducibility. Experimental tissues are incubated with the selected concentration of the test compounds for 15 minutes. Experimental and control tissues are subjected to 5 bath changes during the incubation interval. Changes in bath fluid during the incubation period are helpful in insuring the reproducibility of tissue responses to the agonist. The same concentration of the agonist is reapplied in the presence of the test compound and the response registered and compared with controls. Percent inhibition produced by the test compound is calculated by substracting the mean percentage change in control tissue from the mean percentage change in tissues exposed to the test compound. Additional compounds are then evaluated as long as the tissue remains reproducibly responsive to the agonist. Six tissues obtained from 6 animals are used simultaneously--3 controls and 3 experimental. […]

SMILES	inhibition at 5 µM [%]	inhibition at 50 µM (5×10^-5 M) [%]
O=S(=O)(N[C@@H]1C[C@H]1c1ccccc1)NS(=O)(=O)N[C@@H]1C[C@H]1c1ccccc1 (relative stereo) [Compound 1, 1,5-Di[TRANS-2-PHENYLCYCLOPROPYL]IMIDODISULFAMIDE]	17	–
O=S(=O)(N[C@@H]1C[C@H]1c1ccc(Cl)c(Cl)c1)NS(=O)(=O)N[C@@H]1C[C@H]1c1ccc(Cl)c(Cl)c1 (relative stereo) [Compound 2, 1,5-di[trans-2-(3,4-dichlorophenyl)cyclopropyl]imidodisulfamide]	60	–
O=S(=O)(N[C@@H]1CCCC[C@@H]1c1ccccc1)NS(=O)(=O)N[C@@H]1CCCC[C@@H]1c1ccccc1 (relative stereo) [Compound 3, 1,5-di[cis-2-phenylcyclohexyl]imidodisulfamide]	–	86
